Reference: PubChem BioAssay (NCI)
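Five concentrations, 48 hours, 96-well plates. GI50 is the concentration that inhibits growth by half. TGI: concentration producing complete growth inhibition.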

Experiments:
Assay in all cases: NCI tumour cell line growth inhibition, 48 h
TK-10 renal = tested on: TK-10 renal
SF-295 CNS = tested on: SF-295 CNS
786-0 renal = tested on: 786-0 renal
SK-MEL-2 melanoma = tested on: SK-MEL-2 melanoma
SNB-75 CNS = tested on: SNB-75 CNS
HOP-62 NSCLC = tested on: HOP-62 NSCLC
HOP-92 NSCLC = tested on: HOP-92 NSCLC
HL-60(TB) leukemia = tested on: HL-60(TB) leukemia
NCI/ADR-RES ovarian = tested on: NCI/ADR-RES ovarian
MDA-MB-231 breast = tested on: MDA-MB-231 breast

Structure (SMILES) | TGI (TK-10 renal) [µM] | TGI (SF-295 CNS) [µM] | TGI (786-0 renal) [µM] | TGI (SK-MEL-2 melanoma) [µM] | TGI (SNB-75 CNS) [µM] | TGI (HOP-62 NSCLC) [µM] | TGI (HOP-92 NSCLC) [µM] | TGI (HL-60(TB) leukemia) [µM] | TGI (NCI/ADR-RES ovarian) [µM] | TGI (MDA-MB-231 breast) [µM] | GI50 (TK-10 renal) [µM] | GI50 (SF-295 CNS) [µM] | GI50 (786-0 renal) [µM] | GI50 (SK-MEL-2 melanoma) [µM] | GI50 (SNB-75 CNS) [µM] | GI50 (HOP-62 NSCLC) [µM] | GI50 (HOP-92 NSCLC) [µM] | GI50 (HL-60(TB) leukemia) [µM] | GI50 (NCI/ADR-RES ovarian) [µM] | GI50 (MDA-MB-231 breast) [µM]
COC(=O)C1N=CSCC1(C)O (stereo not drawn) | > 100 | > 100 | > 100 | > 100 | > 100 | > 100 | > 100 | > 100 |  |  |  |  |  |  |  |  |  |  |  | 
CCc1c(O)c2c(c(O)c1C(C)=O)C(=O)c1c(cc(O)c(C(=O)O)c1C(=O)O)C2=O | > 100 | > 100 | > 100 | > 100 | > 100 | > 100 | > 100 |  | > 100 | > 100 |  |  |  |  |  |  |  |  |  | 
CC(=O)[C-](C(C)=O)c1ccccc1.CC(=O)[C-](C(C)=O)c1ccccc1.CC[O-].CC[O-].[Ti+4] | > 100 | > 100 | > 100 | > 100 | > 100 | > 100 | > 100 | > 100 |  |  | > 100 | > 100 | > 100 | > 100 | > 100 | > 100 | > 100 | > 100 |  | 
c1cc[c]([Sn]([S]c2cccc3cccnc23)([S]c2cccc3cccnc23)[c]2ccccc2)cc1 | 0.417 | 1.4 | 0.502 | 0.538 | 1.16 | 1.75 | 0.493 | 0.563 |  |  | 0.206 | 0.353 | 0.212 | 0.16 | 0.192 | 0.411 | 0.158 | 0.172 |  | 
COc1ccc(C(=O)C(C(=O)C(=O)Nc2nccs2)c2ccc(OC)cc2)cc1 (stereo not drawn) | > 100 |  | > 100 | > 100 | > 100 |  | > 100 |  |  |  |  |  |  |  |  |  |  |  |  | 
COc1cc(Cl)c2c3c(c(C(=O)c4ccccc4)oc13)CCC2 | > 100 | > 100 | > 100 |  | > 100 | > 100 |  | > 100 |  |  |  |  |  |  |  |  |  |  |  | 
COc1cc(NCC2COc3c(ccc(OC)c3OC)C2=O)c([N+](=O)[O-])cc1OC (stereo not drawn) | > 100 | > 100 | > 100 | > 100 | > 100 | > 100 |  | > 100 | > 100 | > 100 |  |  |  |  |  |  |  |  |  | 
CCc1cccc(C(C)CC)c1NC(=O)C(=O)C(CC(=O)Nc1ccc(Cl)c(Cl)c1)C(=O)OC (stereo not drawn) | > 100 | > 100 | > 100 | > 100 | > 100 | > 100 | > 100 | > 100 |  |  |  |  |  |  |  |  |  |  |  | 
CCCCCCC#CC#Cc1cccc(=O)o1 | 8.23 | 22.4 | 2.72 | > 100 | 37.3 | 8.48 | 8.92 |  | 15.7 | 3.72 | 2.67 | 6.75 | 0.991 | 9.27 | 4.34 | 2.65 | 3.24 |  | 2.59 | 1.64
Cc1cc(C)cc(Nc2ccc([N+](=O)[O-])c(NCCN3CCOCC3)n2)c1 | > 100 | 25.8 | 18.8 | > 100 |  | 44.9 | 24.3 | 0.00926 |  |  | 13 | 0.000446 |  |  |  |  |  | 0.00261 | 0.000646 | 
Cc1cc(N(CCC#N)CCC#N)ccc1N=Nc1cccc(Cl)c1 | > 100 | > 100 | > 100 | > 100 |  | > 100 | > 100 | > 100 |  |  |  |  |  |  |  |  |  |  |  | 
CCCCN(CCCC)C(=O)C(=O)C(C)C(=O)CC (stereo not drawn) | > 100 | > 100 | > 100 | > 100 | > 100 | > 100 | > 100 | > 100 |  |  |  |  |  |  |  |  |  |  |  | 
O=C(O)c1cc(Cc2ccc(O)c(C(=O)O)c2)ccc1O (tested in a mixture with another compound) | 20.7 | 2.9 | 25.2 |  | 22.4 | 26.6 | 6.3 |  | 21 | 12.2 | 6.17 | 0.592 | 9.64 |  | 3.32 | 10.9 | 1.21 |  | 6.48 | 3.25
N[C@@H]1CCCC[C@@H]1N.O=C([O-])CN(CP(=O)([O-])[O-])CP(=O)([O-])[O-].[Pt+2] | > 100 | > 100 | > 100 | > 100 | > 100 | > 100 | > 100 | > 100 |  |  | > 100 | > 100 | > 100 | > 100 | > 100 | > 100 | > 100 | > 100 |  | 
CO[C@@]12C[C@H]3[C@@H]([C@@H](O)[C@@H](OC(=O)/C=C/c4ccccc4)[C@@]4(O)C(C)(C)CCC[C@]34C)[C@@H](C)C1=CC(=O)O2 | > 100 | 44.1 | > 100 | > 100 | 2.46 |  |  | > 100 | > 100 | 4.6 | 6.15 | 3.84 | 24.8 | 27 | 0.382 |  |  | 11.1 | 11 | 0.585
C1=C(c2ccccc2)SC=C(c2ccccc2)S1 | > 100 | > 100 | > 100 |  | 64 | > 100 | > 100 | > 100 | 64 | > 100 |  |  |  |  |  |  |  |  |  | 
Oc1c(I)cc(-c2nc3ccccc3s2)cc1CN(Cc1ccccn1)Cc1ccccn1 | > 100 | > 100 | 2.62 | 17.8 |  | 68.3 | 5.45 | > 100 | 2.93 | 10.4 | 0.46 | 0.35 | 0.347 | 0.362 |  | 0.332 | 0.273 | 0.323 | 0.411 | 0.217
N#CC(C(=N/NC(N)=S)/C(=N/NC(N)=S)C(C#N)c1ccc(Cl)cc1)c1ccc(Cl)cc1 (stereo not drawn) | > 100 | > 100 | > 100 | > 100 | 92.1 | > 100 | > 100 |  |  |  |  |  |  |  |  |  |  |  |  | 
